A short description of data set [1]: Metabolic stability in human liver microsomes assessed as parent compound remaining relative to control. Also: time not given here. The data set is classed as ADME, Microsome.
A short description of data set [2]: Metabolic stability in rat liver microsomes assessed as parent compound remaining. Also: time not given here. The data set is classed as ADME, Microsome.
The target in data set [3] is T1, Steroid 17-alpha-hydroxylase/17,20 lyase (Homo sapiens, UniProt P05093).
T1 sequence (P05093 whole entry): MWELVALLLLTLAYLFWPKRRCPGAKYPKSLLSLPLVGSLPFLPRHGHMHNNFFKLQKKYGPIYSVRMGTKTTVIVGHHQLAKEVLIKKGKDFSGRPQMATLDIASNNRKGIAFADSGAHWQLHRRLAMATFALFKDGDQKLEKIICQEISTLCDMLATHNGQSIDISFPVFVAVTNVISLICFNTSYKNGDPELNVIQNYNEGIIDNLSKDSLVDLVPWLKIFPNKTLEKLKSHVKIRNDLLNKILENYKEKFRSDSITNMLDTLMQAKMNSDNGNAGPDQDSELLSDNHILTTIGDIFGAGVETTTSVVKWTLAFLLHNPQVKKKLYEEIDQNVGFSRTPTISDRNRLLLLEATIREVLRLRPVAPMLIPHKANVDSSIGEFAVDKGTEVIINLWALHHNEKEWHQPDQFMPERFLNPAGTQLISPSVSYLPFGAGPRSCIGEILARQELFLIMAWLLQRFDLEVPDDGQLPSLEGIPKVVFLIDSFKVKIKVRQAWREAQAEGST
The experiment in a line: Inhibition of human CYP17A1. The data set is classed as ADME.

Data set [4] is described as follows: Metabolic stability in mouse liver microsomes assessed as parent compound remaining. Also: time not given here. The format is ADME, Microsome. Background: Liver microsomes are a subcellular fraction often used to study metabolism.
A further data set concerns the target T2, Cytochrome P450 1A2 (Homo sapiens, UniProt P05177).
T2 sequence (P05177 whole entry): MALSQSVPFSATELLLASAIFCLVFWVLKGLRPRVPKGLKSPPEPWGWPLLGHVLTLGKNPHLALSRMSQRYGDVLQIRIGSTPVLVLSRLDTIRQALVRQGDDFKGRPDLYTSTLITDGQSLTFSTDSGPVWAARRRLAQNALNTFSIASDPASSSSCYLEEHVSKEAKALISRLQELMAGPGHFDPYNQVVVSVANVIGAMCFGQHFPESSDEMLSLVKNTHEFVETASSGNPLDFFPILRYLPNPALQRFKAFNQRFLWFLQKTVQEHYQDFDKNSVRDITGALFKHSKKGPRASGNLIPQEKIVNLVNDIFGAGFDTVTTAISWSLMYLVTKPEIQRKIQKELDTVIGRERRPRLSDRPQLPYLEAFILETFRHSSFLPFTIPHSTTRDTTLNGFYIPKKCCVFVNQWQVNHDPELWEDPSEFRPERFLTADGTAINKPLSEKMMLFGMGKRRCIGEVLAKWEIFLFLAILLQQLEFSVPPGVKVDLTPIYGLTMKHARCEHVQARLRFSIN
The data set is described as follows: Inhibition of CYP1A2 (unknown origin). The data set is classed as ADME.

Data set [5] deals with T1, Steroid 17-alpha-hydroxylase/17,20 lyase. The experiment in a line: Selectivity ratio for inhibition of human CYP17A1 hydroxylase activity to inhibition of human CYP17A1 lyase activity. The format is ADME.

Consider 34 compounds from ChEMBL document CHEMBL5223109, “The discovery of BMS-737 as a potent, CYP17 lyase-selective inhibitor for the treatment of castration-resistant prostate cancer” (Bioorg Med Chem Lett, 2022).

As for `Cc1ccncc1-c1cccc2c(-c3ccccc3)noc12`, the figures for the Stability in data set [1], in data set [2] and in data set [4] were 80%, 6% and 5%, respectively. In addition, the IC50 (in general, the concentration that gives 50% inhibition) in data set [3] is 1 nM; against Cytochrome P450 1A2, 28 nM.

In the case of `Cn1cncc1-c1ccnc2c1cnn2-c1ccc(F)cc1`, the Stability in data set [1] turned out to be 100%; in data set [2] it was 56%; in data set [4] it was 37%. For the same compound, the IC50 at Cytochrome P450 1A2 worked out at 58 nM. The Ratio in data set [5] is given as 30.

Take `Cc1ccncc1-c1ccnn2c(-c3ccccc3)cnc12`: the Stability is listed as 100% in data set [1], 47% in data set [2] and 26% in data set [4]. Inhibition against Cytochrome P450 1A2 was half-maximal at 318 nM (IC50).

For `Cc1ccncc1-c1ccnc2c1cnn2-c1cccc(F)c1`, the figures for the Stability in data set [1], in data set [2] and in data set [4] were 76%, 9% and 4%, respectively. Further, the IC50 amounted to 27 nM in data set [3] and 281 nM against Cytochrome P450 1A2. In addition, the Ratio in data set [5] is 36.

As to `Cc1ccncc1-c1ccnc2c1cnn2-c1ccccc1`, the Stability in data set [1] is 73%; in data set [2], 4%; in data set [4] it was 7%. Also, the IC50 in data set [3] came out at 7 nM; on Cytochrome P450 1A2 it was 560 nM.

On to `Fc1ccc(-n2ncc3c(-c4cccnc4)ccnc32)cc1`, for which the IC50 worked out at 96 nM in data set [3] and 216 nM on Cytochrome P450 1A2.

In the case of `Cc1ccncc1-c1ccnc2c1cnn2-c1nccs1`, the results for the Stability in data set [1], in data set [2] and in data set [4] were 64%, 48% and 42%, respectively. In addition, the IC50 in data set [3] stood at 91 nM; against Cytochrome P450 1A2, 617 nM.

For `Cc1ccncc1-c1ccnc2c1cnn2CC(F)(F)F`, the Stability in data set [1] amounted to 92%; in data set [2], 30%; in data set [4], 41%. On Cytochrome P450 1A2, this compound returned an IC50 of 11200 nM. The Ratio in data set [5] stood at 12.

In the case of `Cc1ccncc1-c1ccnc2c1cnn2-c1ncccc1Cl`, the Stability in data set [1] is given as 88%; in data set [2], 26%; in data set [4], 25%. In addition, the IC50 in data set [3] is 5 nM; against Cytochrome P450 1A2, 16700 nM. The Ratio in data set [5] is recorded as 7.

Regarding `Cc1ccncc1-c1ccnc2c1cnn2-c1ccc(F)cc1F`, the Stability in data set [1] amounted to 100%; in data set [2] it was 18%; in data set [4] it was 37%. The IC50 in data set [3] turned out to be 9 nM; on Cytochrome P450 1A2, 5200 nM. Further, the Ratio in data set [5] is 19.

On to `COc1c(F)cccc1-n1ncc2c(-c3cnccc3C)ccnc21`, for which the Stability in data set [1] was 77%; in data set [2], 0.2%; in data set [4], 2%. Further, the IC50 is 14 nM in data set [3] and 4740 nM on Cytochrome P450 1A2. In addition, the Ratio in data set [5] came to 7.

In the case of `Cc1ccncc1-c1ccnc2c1cnn2C(C)(C)C`, the figures for the Stability in data set [2] and in data set [4] were 16% and 15%, respectively. The half-inhibitory concentration (IC50) in data set [3] stood at 92 nM; at Cytochrome P450 1A2, 5280 nM.

On to `Nc1ncncc1-c1ccnc2c1cnn2-c1cccc(S(N)(=O)=O)c1`, for which the Stability in data set [1] amounted to 100%; in data set [2], 89%; in data set [4] it was 95%. Also, the IC50 in data set [3] was 99 nM; against Cytochrome P450 1A2, > 40000 nM.

As to `COc1ccccc1-n1ncc2c(-c3cnccc3C)ccnc21`, the figures for the Stability in data set [1], in data set [2] and in data set [4] were 88%, 1% and 2%, respectively. Moreover, the IC50 in data set [3] turned out to be 9 nM; against Cytochrome P450 1A2 it was 15400 nM.

In the case of `Cc1ncncc1-c1ccnc2c1cnn2-c1ccc(F)cc1`, the IC50 against Cytochrome P450 1A2 is 2740 nM. Further, in data set [5], the Ratio is 4.

For the compound `Cc1ccncc1-c1ccnc2c1cnn2Cc1ccc(F)cc1`, the results for the half-maximal inhibitory concentration (IC50) (in data set [3]; on Cytochrome P450 1A2) were 800 nM and 5140 nM, respectively.

Take `Cc1ccncc1-c1ccnn2c(-c3ccccc3)ccc12`: the Stability was determined as 70% in data set [1], 3% in data set [2] and 7% in data set [4]. Also, the figures for the half-inhibitory concentration (IC50) (in data set [3]; against Cytochrome P450 1A2) were 5 nM and 180 nM, respectively.

On to `Cc1ccncc1-c1ccnc2c1cnn2C`, for which the half-inhibitory concentration (IC50) in data set [3] is > 1000 nM; against Cytochrome P450 1A2 it was > 40000 nM.

In the case of `Fc1ccc(-n2ncc3c(-c4cncnc4C(F)(F)F)ccnc32)cc1`, the Stability is on record as 88% in data set [1], 63% in data set [2] and 56% in data set [4]. Also, the IC50 in data set [3] amounted to 141 nM; against Cytochrome P450 1A2, 2140 nM.

Regarding `Cc1ccncc1-c1ccnc2c(-c3ccccc3)noc12`, the results for the Stability in data set [1], in data set [2] and in data set [4] were 80%, 7% and 5%, respectively. For the same compound, the IC50 in data set [3] turned out to be 5 nM; at Cytochrome P450 1A2, 321 nM.

Turning to `Cc1ccncc1-c1cccc2c(-c3ccccc3)cnn12`, the figures for the Stability in data set [1], in data set [2] and in data set [4] were 79%, 3% and 6%, respectively. For the same compound, the IC50 in data set [3] worked out at 2 nM; on Cytochrome P450 1A2, 34 nM.

With `Cc1ccncc1-c1ccnc2c1cnn2-c1ccc(F)cc1Cl`, the Stability in data set [1] amounted to 74%; in data set [2] it was 0.9%; in data set [4] it was 14%. For the same compound, the values for the half-maximal inhibitory concentration (IC50) (in data set [3]; on Cytochrome P450 1A2) were 4 nM and 8700 nM, respectively. Moreover, the Ratio in data set [5] came to 3.

Consider `Cc1ccncc1-c1ccnc2c(-c3ccccc3)csc12`, for which the Stability in data set [1] is listed as 65%; in data set [2] it was 3%; in data set [4] it was 2%. Also, the IC50 in data set [3] amounted to 10 nM; against Cytochrome P450 1A2 it was 250 nM.

Consider `Cc1ccncc1-c1cccc2c(-c3ccccc3)csc12`, for which the Stability in data set [1] came to 84%; in data set [2] it was 2%; in data set [4], 3%. The IC50 in data set [3] was 3 nM; at Cytochrome P450 1A2, 134 nM.

In the case of `Nc1ncncc1-c1ccnc2c1cnn2-c1c(F)cc(F)cc1F`, the figures for the Stability in data set [2] and in data set [4] were 87% and 82%, respectively. Further, the values for the IC50 (in data set [3]; at Cytochrome P450 1A2) were 5 nM and > 40000 nM, respectively. The Ratio in data set [5] was 3.

`COc1ccncc1-c1ccnc2c1cnn2-c1ccc(F)cc1`: the Stability in data set [1] came out at 86%; in data set [2], 32%; in data set [4] it was 58%. The IC50 came out at 11 nM in data set [3] and 717 nM at Cytochrome P450 1A2. The Ratio in data set [5] stood at 10.

In the case of `Cc1ccncc1-c1ccnc2c1cnn2-c1ccc(F)cc1`, the Stability in data set [1] is listed as 100%; in data set [2], 43%; in data set [4] it was 27%. For the same compound, the concentration for half-maximal inhibition (IC50) in data set [3] came to 6 nM; at Cytochrome P450 1A2, 384 nM. In addition, the Ratio in data set [5] amounted to 43.

Regarding `Cc1ccncc1-c1ccnc2c1cnn2-c1ccc(F)c(Cl)c1`, the Stability in data set [1] was 85%; in data set [2] it was 37%; in data set [4], 2%. Further, the results for the half-maximal inhibitory concentration (IC50) (in data set [3]; at Cytochrome P450 1A2) were 24 nM and 662 nM, respectively. Besides, the Ratio in data set [5] was 10.

As for `Fc1ccc(-n2ncc3c(-c4cncn5cccc45)ccnc32)cc1`, the results for the Stability in data set [1], in data set [2] and in data set [4] were 72%, 12% and 1%, respectively. Also, the values for the half-inhibitory concentration (IC50) (in data set [3]; on Cytochrome P450 1A2) were > 1000 nM and 2330 nM, respectively. For the same compound, in data set [5], the Ratio is 13.

For `Nc1ncncc1-c1ccnc2c1cnn2-c1ccccn1`, the Stability in data set [1] is 100%; in data set [2], 100%; in data set [4] it was 70%. Further, the IC50 against Cytochrome P450 1A2 was > 40000 nM.

For the compound `Nc1ccncc1-c1ccnc2c1cnn2-c1ccc(F)cc1`, the Stability in data set [1] is given as 99%; in data set [2], 0.2%; in data set [4], 3%. For the same compound, the figures for the IC50 (in data set [3]; at Cytochrome P450 1A2) were 5 nM and 26900 nM, respectively. The Ratio in data set [5] was determined as 7.

For the compound `Cc1ccncc1-c1cccc2c1OCCN2c1ccccc1`, the Stability in data set [1] turned out to be 62%; in data set [2] it was 0.8%; in data set [4], 2%. Further, the half-maximal inhibitory concentration (IC50) stood at 8 nM in data set [3] and 140 nM on Cytochrome P450 1A2.

For the compound `COc1cccc(-n2ncc3c(-c4cnccc4C)ccnc32)c1`, the Stability in data set [1] came to 21%; in data set [2], 6%; in data set [4], 37%. Moreover, the IC50 was determined as 3 nM in data set [3] and 1480 nM at Cytochrome P450 1A2.

`Nc1ncncc1-c1ccnc2c1cnn2-c1ncccc1C(F)(F)F`: the Stability is reported as 98% in data set [1], 84% in data set [2] and 62% in data set [4]. The compound further had an IC50 in data set [3] of 11 nM. Moreover, the Ratio in data set [5] worked out at 4.
